Measurements as given in US11795171B2, “Pyrrolotriazinones and imidazotriazinones as ubiquitin-specific protease 7 inhibitors” (Valo Health, Inc., priority 2014, dated 2023).

target: USP7 (Homo sapiens (Human), UniProt Q93009); assay: USP7 Assay A (Ubitquin-Rhodamine110 Assay); format: biochemical; details: Ub-Rh110 substrate 25 nM
Description: Each assay was performed in a final volume of 15 μL in assay buffer containing 20 mM Tris-HCl (pH 8.0, (1M Tris-HCl, pH 8.0 solution; Corning 46-031-CM)), 1 mM GSH (L-Glutathione reduced: Sigma #G4251), 0.03% BGG ([…], Sigma, #G7516-25G), and 0.01% Triton X-100 (Sigma, #T9284-10L). Nanoliter quantities of either an 8-point or 10-point, 3-fold serial dilution in DMSO was pre-dispensed into assay plates (Perkin Elmer, ProxiPlate-384 F Plus, #6008269) for a final test concentration range of either 25 μM to 11 nM or 25 μM to 1.3 nM, respectively. The final concentration of the enzyme (USP7, construct USP7 (208-1102) 6*His, Viva Biotech) in the assay was […]. […] 5 μL of 2× enzyme was added to assay plates (pre-stamped with compound) preincubated with USP7 for 30 minutes and then 5 μL of 2×Ub-Rh110 was added to assay plates. Plates were incubated stacked for 20 minutes at room temperature before 5 μL of stop solution (final concentration of 10 mM citric acid in assay buffer (Sigma, #251275-500G)). Fluorescence was read on the Envision (Excitation at 485 nm and Emission at 535 nm; Perkin Elmer) or on the PheraSTAR (Excitation at 485 nm and Emission at 535 nm; BMG Labtech).
Data from USP7 Assays A and B were reported as percent inhibition (inh) compared with control wells based on the following equation: % inh=1−((FLU−AveLow)/(AveHigh−AveLow)) where FLU=measured Fluorescence (See Tables 2 and 3). AveLow=average Fluorescence of no enzyme control (n=16). AveHigh=average Fluorescence of DMSO control (n=16). IC50 values were determined by curve fitting of the standard 4 parameter logistic fitting algorithm included in the Activity Base software package: IDBS XE Designer Model205. Data is fitted using the Levenburg Marquardt algorithm. IC50 data from USP7 Assays A and B for the compounds of the invention can be found in Tables 2 and 3.

Chain of USP7 (Q93009 208-1102): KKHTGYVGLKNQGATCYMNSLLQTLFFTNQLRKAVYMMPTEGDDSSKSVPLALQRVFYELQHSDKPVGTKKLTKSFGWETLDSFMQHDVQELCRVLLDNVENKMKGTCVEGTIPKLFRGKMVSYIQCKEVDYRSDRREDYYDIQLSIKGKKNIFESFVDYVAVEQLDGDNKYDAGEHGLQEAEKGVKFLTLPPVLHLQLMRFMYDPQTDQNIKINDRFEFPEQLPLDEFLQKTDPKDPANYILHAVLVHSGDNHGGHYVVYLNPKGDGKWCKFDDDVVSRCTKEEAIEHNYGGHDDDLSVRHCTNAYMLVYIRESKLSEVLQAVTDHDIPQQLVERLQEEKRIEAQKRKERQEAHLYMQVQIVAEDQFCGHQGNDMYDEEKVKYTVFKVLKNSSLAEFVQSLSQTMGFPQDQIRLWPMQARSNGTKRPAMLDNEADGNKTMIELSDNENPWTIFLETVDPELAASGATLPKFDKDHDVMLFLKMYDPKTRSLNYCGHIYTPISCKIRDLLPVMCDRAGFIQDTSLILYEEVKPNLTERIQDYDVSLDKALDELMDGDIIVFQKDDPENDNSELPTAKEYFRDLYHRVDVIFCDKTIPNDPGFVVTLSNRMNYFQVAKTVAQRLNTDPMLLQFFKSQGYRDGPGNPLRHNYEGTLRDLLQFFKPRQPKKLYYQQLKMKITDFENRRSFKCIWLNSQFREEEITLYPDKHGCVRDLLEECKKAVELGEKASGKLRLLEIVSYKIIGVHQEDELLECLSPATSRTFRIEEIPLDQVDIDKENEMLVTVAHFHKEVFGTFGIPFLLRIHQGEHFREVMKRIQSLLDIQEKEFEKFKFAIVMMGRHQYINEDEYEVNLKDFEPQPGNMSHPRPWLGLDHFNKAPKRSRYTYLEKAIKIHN

Compound	IC50
Cc1ccc(-c2ncc3c(=O)n(CC4(O)CCN(C(=O)c5ccc(F)cc5)CC4)cnn23)cc1 [Compound I-117, 3-((1-(4-fluorobenzoyl)-4-hydroxypiperidin-4-yl)methyl)-7-p-tolylimidazo[1,5-f][1,2,4]triazin-4(3H)-one]	1 to 10 µM
Cc1ccc(-c2ncc3c(=O)n(CC4(O)CCN(C(=O)CC(C)n5cccn5)CC4)cnn23)cc1 (racemic) [Compound I-119, 3-([4-Hydroxy-1-[3-(1H-pyrazol-1-yl)butanoyl]piperidin-4-yl]methyl)-7-(4-methylphenyl)-3H,4H-imidazo[4,3-f][1,2,4]triazin-4-one]	1 to 10 µM
O=C(c1ccc(F)cc1)N1CCC(O)(Cn2cnn3c(-c4ccc(F)cc4)ncc3c2=O)CC1 [Compound I-116, 3-((1-(4-fluorobenzoyl)-4-hydroxypiperidin-4-yl)methyl)-7-(4-fluorophenyl)imidazo[5,1-f][1,2,4]triazin-4(3H)-one]	> 10 µM
Cc1ccc(-c2ncc3c(=O)n(CC4(O)CCN(C(=O)C[C@H](C)n5cccn5)CC4)cnn23)cc1 [Compound I-120, (S)-3-((1-(3-(1H-pyrazol-1-yl)butanoyl)-4-hydroxypiperidin-4-yl)methyl)-7-(p-tolyl)imidazo[5,1-f][1,2,4]triazin-4(3H)-one]	1 to 10 µM
Cc1ccc(-c2ncc3c(=O)n(CC4(O)CCN(C(=O)C[C@@H](C)n5cccn5)CC4)cnn23)cc1 [Compound I-121, (R)-3-((1-(3-(1H-pyrazol-1-yl)butanoyl)-4-hydroxypiperidin-4-yl)methyl)-7-(p-tolyl)imidazo[5,1-f][1,2,4]triazin-4(3H)-one]	> 10 µM
O=C(c1cnc(C2CC2)o1)N1CCC(O)(Cn2cnn3c(-c4ccc(F)cc4)ncc3c2=O)CC1 [Compound I-122, 3-((1-(2-cyclopropyloxazole-5-carbonyl)-4-hydroxypiperidin-4-yl)methyl)-7-(4-fluorophenyl)imidazo[5,1-f][1,2,4]triazin-4(3H)-one]	1 to 10 µM
Cc1ccc(C(=O)N2CCC(O)(Cn3cnn4c(-c5ccc(F)cc5)ncc4c3=O)CC2)cc1F [Compound I-125, 3-((1-(3-fluoro-4-methylbenzoyl)-4-hydroxypiperidin-4-yl)methyl)-7-(4-fluorophenyl)imidazo[5,1-f][1,2,4]triazin-4(3H)-one]	> 10 µM
Cc1ccc(C(=O)N2CCC(O)(Cn3cnn4c(-c5ccc(F)cc5)ncc4c3=O)CC2)cc1 [Compound I-124, 7-(4-fluorophenyl)-3-((4-hydroxy-1-(4-methylbenzoyl)piperidin-4-yl)methyl)imidazo[5,1-f][1,2,4]triazin-4(3H)-one]	> 10 µM
O=C(c1ccc(-n2cccn2)cc1)N1CCC(O)(Cn2cnn3c(-c4ccc(F)cc4)ncc3c2=O)CC1 [Compound I-123, 3-((1-(4-(1H-pyrazol-1-yl)benzoyl)-4-hydroxypiperidin-4-yl)methyl)-7-(4-fluorophenyl)imidazo[5,1-f][1,2,4]triazin-4(3H)-one]	1 to 10 µM
